Consider 19 molecules from patent US4206117A, “Pyridinyl aminoalkyl ethers” (BASF Aktiengesellschaft, priority 1977, dated 1980).

Data set [1] concerns Aconitineinduced arrhythmia, rats. The data set can be described thus: animal or person. The data set is classed as in vivo, rats (Sprague Dawley). The settings on record: for ED50 / Emax: Rattus norvegicus, po; for ED50: 1 h, read-out: Effective dose ED 50 (extends the duration of aconitine infusion by 50%); for Emax: read-out: R.M.A. (relative maximum activity); for Maximum action: Prolongation of the duration of aconitine infusion, Δ% / R.M.A. (relative maximum activity): at the highest nontoxic dose; for Maximum action: Prolongation of the duration of aconitine infusion, Δ% / Maximum action: Dose (highest nontoxic dose): oral, rats; for R.A. (relative activity) / R.M.A. (relative maximum activity): quinidine = 1.00. The method, then: (§1) To determine the anti-arrhythmic activity, the drugs were administered orally to rats (Sprague Dawley, weight from 180 to 240 g) 45 minutes before the start of the narcosis.
The animals were narcotized with thiobutabartial (100 mg/kg administered intraperitoneally). The arrhythmogenic substance used was aconitine, which was administered by intravenous infusion (at a rate of 0.005 mg/kg.min) 60 minutes after administration of the test substance.
For a quantitative evaluation of the linear relation between log dose (mg/kg) of the test substances and relative prolongation of the duration of aconitine infusion (Δ%), the dose which extended the duration of infusion by 50% (ED 50) was determined.

The nature of data set [2]: Acute toxicity, intraperitoneal administration. Conditions: mouse, in vivo, ip, female Swiss mice, within 24 hours, read-out: Acute toxicity LD 50. Here is the method: (§2) The acute toxicity was determined on groups of 10 or 20 female Swiss mice, weighing 20-26 g, the compounds being administered intraperitoneally.
Data set [3] can be described thus: Therapeutic range, quotient of LD 50 (mice) and ED 50 (rats). The data set is classed as in vivo. The settings on record: in vivo; LD 50 mice i.p. / ED 50 rats oral. The method, then: as §1
(§3) The animals were narcotized with thiobutabartial (100 mg/kg administered intraperitoneally). The arrhythmogenic substance used was aconitine, which was administered by intravenous infusion (at a rate of 0.005 mg/kg.min) 60 minutes after administration of the test substance. In the case of untreated animals (N=30), arrhythmias occurred after an average of 3.7±0.9 minutes, the commencement of which can be delayed by anti-arrhythmic agents, the delay depending on the dosage.
(§4) For a quantitative evaluation of the linear relation between log dose (mg/kg) of the test substances and relative prolongation of the duration of aconitine infusion (Δ%), the dose which extended the duration of infusion by 50% (ED 50) was determined. The prior art anti-arrhythmic agent quinidine served as a comparative substance.
as §2

Data set [4] deals with Aconitineinduced arrhythmia, rats. The data set is described as above. The settings on record: relative to quinidine. Format: in vivo. The method, then:
as §1, §3, §4, §2

As for `Cc1nc(Cc2ccccc2)c2c(c1OCCN(C)C)COC2.Cl.Cl` [Example 1, 4-benzyl-6-methyl-1,3-dihydro-furo[3,4-c]pyridin-7-yl β-dimethylaminoethyl ether bis-hydrochloride], in data set [1], the ED50 is 31 mg/kg; the Emax came out at 138%; the “Maximum action: Prolongation of the duration of aconitine infusion, Δ%” value (from here on “Maximum action: Prolongation … Δ%”) turned out to be 184%; the “Maximum action: Dose (highest nontoxic dose)” value (from here on “Maximum action: Dose”) stood at 68.1 mg/kg. In data set [1], the “R.A. (relative activity)” value came out at 1.36. The LD50 at 24 h in data set [2] was around 147 mg/kg. In data set [3], the selectivity ratio was around 4.74.
In the case of `COC(=O)c1c(Cc2ccccc2)nc(C)c(OCCCN(C)C)c1C(=O)OC` [Example 18], in data set [1], the ED50 is 9.82 mg/kg; the Emax turned out to be 222%; the “Maximum action: Prolongation … Δ%” value was determined as 295%; the “Maximum action: Dose” value is on record as 215 mg/kg. Besides, the “R.A. (relative activity)” value in data set [1] is reported as 4.35. Moreover, the LD50 at 24 h in data set [2] was found to be 170 mg/kg. Moreover, in data set [3], the selectivity ratio was 17.3.
For `CCOC(=O)c1c(Cc2ccccc2)nc(C)c(OCCCN(C)C)c1C(=O)OCC` [Example 25], in data set [1], the ED50 is 15.9 mg/kg; the Emax amounted to 147%; the “Maximum action: Prolongation … Δ%” value is 195%; the “Maximum action: Dose” value came to 100 mg/kg. The “R.A. (relative activity)” value in data set [1] is 2.67. In data set [2], the LD50 at 24 h was determined as 137 mg/kg. For the same molecule, the selectivity ratio in data set [3] amounted to 8.62.
Take `CCc1nc(Cc2ccccc2)c2c(c1OCCCN(C)C)COC2` [Example 29]: in data set [1], the ED50 is 18.1 mg/kg; the Emax came to 204%; the “Maximum action: Prolongation … Δ%” value is recorded as 271%; the “Maximum action: Dose” value was found to be 215 mg/kg. In data set [1], the “R.A. (relative activity)” value was 2.34. Also, in data set [2], the LD50 at 24 h was determined as 104 mg/kg. Further, the selectivity ratio in data set [3] is 5.75.
On to `CN(C)CCCOc1c(Cc2ccccc2)nc(Cc2ccccc2)c2c1COC2` [Example 32], for which, in data set [1], the “Maximum action: Prolongation … Δ%” value was found to be 319%; the “R.M.A. (relative maximum activity)” value is 2.40; the “Maximum action: Dose” value was determined as 215 mg/kg; the “R.A. (relative activity)” value came to 2.84.
Consider `Cc1nc(Cc2ccccc2)c2c(c1OCCCNC(C)C)COC2` [Example 34, 4-benzyl-6-methyl-1,3-dihydro-furo[3,4-c]pyridin-7-yl 3-isopropylaminopropyl ether], for which, in data set [1], the “Maximum action: Prolongation … Δ%” value worked out at 457%; the “R.M.A. (relative maximum activity)” value is 3.44; the “Maximum action: Dose” value is on record as 215 mg/kg; the “R.A. (relative activity)” value was 1.46. Further, the “effect achieved with the maximum dose, times as great as that of quinidine” value in data set [1] (relative to quinidine) was determined as 3.4 times.
With `CCCN(CCC)CCCOc1c(C)nc(Cc2ccccc2)c2c1COC2` [Example 36], in data set [1], the ED50 turned out to be 21 mg/kg; the Emax was determined as 165%; the “Maximum action: Prolongation … Δ%” value amounted to 219%; the “Maximum action: Dose” value turned out to be 100 mg/kg. Moreover, the “R.A. (relative activity)” value in data set [1] is 2.01. The LD50 at 24 h in data set [2] was 180 mg/kg. Moreover, in data set [3], the selectivity ratio was determined as 8.57.
For `Cc1nc(Cc2ccccc2)c2c(c1OCCCN1CCNCC1)COC2` [Example 43], in data set [1], the ED50 was 28.5 mg/kg; the Emax is 116%; the “Maximum action: Prolongation … Δ%” value is given as 154%; the “Maximum action: Dose” value amounted to 46.4 mg/kg. Further, in data set [1], the “R.A. (relative activity)” value worked out at 1.48. Moreover, the “effect achieved with the maximum dose, times as great as that of quinidine” value in data set [1] (relative to quinidine) was found to be 1.2 times. In addition, in data set [2], the LD50 at 24 h is around 147 mg/kg. Besides, in data set [3], the selectivity ratio is around 5.16.
Take `Cc1nc(Cc2ccccc2)c2c(c1OCCCCNC(C)C)COC2` [Example 47]: in data set [1], the “Maximum action: Prolongation … Δ%” value came to 358%; the “R.M.A. (relative maximum activity)” value came out at 2.69; the “Maximum action: Dose” value is reported as 100 mg/kg; the “R.A. (relative activity)” value is 7.47. Further, the “anti-arrhythmic action, times more powerful than that of quinidine” value in data set [1] (relative to quinidine) came out at 7.5 times. In data set [4], the “therapeutic range, times as great as that of quinidine” value stood at 4.1 times.
As to `Cc1nc(Cc2ccccc2)c2c(c1OCCCCCNC(C)C)COC2` [Example 52], in data set [1], the ED50 came to 16 mg/kg; the Emax was found to be 169%; the “Maximum action: Prolongation … Δ%” value is 225%; the “Maximum action: Dose” value is given as 215 mg/kg. For the same molecule, the “R.A. (relative activity)” value in data set [1] is recorded as 2.64. Besides, the LD50 at 24 h in data set [2] was 104 mg/kg. In addition, the selectivity ratio in data set [3] is 6.5.
Take `Cc1nc(Cc2ccccc2)c2c(c1OCCC(C)CCNC(C)C)COC2` (stereo not drawn) [Example 55]: in data set [1], the “Maximum action: Prolongation … Δ%” value came out at 333%; the “R.M.A. (relative maximum activity)” value was 2.50; the “Maximum action: Dose” value amounted to 100 mg/kg; the “R.A. (relative activity)” value is reported as 3.47.
The matching figures for `CCN(CC)CCC(C)CCOc1c(C)nc(Cc2ccccc2)c2c1COC2` (stereo not drawn) [Example 57]: 261%, 1.96, 100 mg/kg and 3.74.
Consider `CCNCCCCOc1c(C)nc(Cc2ccccc2)c2c1COC2` [Example 58], for which, in data set [1], the ED50 was determined as 18.8 mg/kg; the Emax was determined as 140%; the “Maximum action: Prolongation … Δ%” value is 186%; the “Maximum action: Dose” value is 100 mg/kg. In addition, in data set [1], the “R.A. (relative activity)” value stood at 2.27. For the same molecule, the LD50 at 24 h in data set [2] is 114 mg/kg. Moreover, in data set [3], the selectivity ratio is 6.06.
As to `CCC(C)NCCCCOc1c(C)nc(Cc2ccccc2)c2c1COC2` (stereo not drawn) [Example 60], in data set [1], the ED50 turned out to be 21.1 mg/kg; the Emax was determined as 185%; the “Maximum action: Prolongation … Δ%” value was 246%; the “Maximum action: Dose” value was found to be 100 mg/kg. Moreover, in data set [1], the “R.A. (relative activity)” value was 2.00. In data set [2], the LD50 at 24 h was 101 mg/kg. Moreover, the selectivity ratio in data set [3] stood at 4.79.
For the molecule `Cc1nc(Cc2ccccc2)c2c(c1OCCCCNC(C)(C)C)COC2` [Example 61], in data set [1], the “Maximum action: Prolongation … Δ%” value amounted to 298%; the “R.M.A. (relative maximum activity)” value was determined as 2.24; the “Maximum action: Dose” value is 46.4 mg/kg; the “R.A. (relative activity)” value is recorded as 4.60.
With `Cc1nc(Cc2ccccc2)c2c(c1OCCCCN(C(C)C)C(C)C)COC2` [Example 64], in data set [1], the ED50 came to 21.2 mg/kg; the Emax is 238%; the “Maximum action: Prolongation … Δ%” value turned out to be 317%; the “Maximum action: Dose” value came out at 100 mg/kg. For the same molecule, the “R.A. (relative activity)” value in data set [1] was determined as 2.01. In data set [2], the LD50 at 24 h stood at 156 mg/kg. Also, the selectivity ratio in data set [3] amounted to 7.36.
As to `Cc1nc(Cc2ccccc2)c2c(c1OCCCCNCCC(C)(C)O)COC2` [Example 68], in data set [1], the ED50 was 15.8 mg/kg; the Emax was determined as 181%; the “Maximum action: Prolongation … Δ%” value is 241%; the “Maximum action: Dose” value was 100 mg/kg. The “R.A. (relative activity)” value in data set [1] is 2.70. Further, the LD50 at 24 h in data set [2] is around 68.1 mg/kg. In data set [3], the selectivity ratio is around 4.31. Further, the “therapeutic range compared with that of quinidine (in words)” value in data set [4] is “as great as”.
Turning to `Cc1nc(Cc2ccccc2)c2c(c1OCC(O)CNC(C)C)COC2.Cl` (stereo not drawn) [Example 69, 4-benzyl-6-methyl-1,3-dihydrofuro[3,4-c]pyridin-7-yl 2-hydroxy-3-isopropylaminopropyl ether hydrochloride], in data set [1], the ED50 is 23 mg/kg; the Emax is 164%; the “Maximum action: Prolongation … Δ%” value is listed as 218%; the “Maximum action: Dose” value came out at 464 mg/kg. In data set [1], the “R.A. (relative activity)” value stood at 1.84. Besides, the LD50 at 24 h in data set [2] was 107 mg/kg. Further, the selectivity ratio in data set [3] is 4.65.
`C=C[C@H]1C[N@@]2CC[C@H]1C[C@@H]2[C@@H](O)c1ccnc2ccc(OC)cc12` [Quinidine, quinidine, reference compound]: the “Maximum action: Prolongation … Δ%” value in data set [1] is 133%.
